Data reported in the supplement of paper PMC10307832.

Assays:
Test in all cases: relative viability (nuclei count vs DMSO), 5 days (fraction); higher = more cells survive
Trametinib + Navitoclax = compound: CC(=O)Nc1cccc(-n2c(=O)n(C3CC3)c(=O)c3c(Nc4ccc(I)cc4F)n(C)c(=O)c(C)c32)c1 [Trametinib] + CC1(C)CCC(c2ccc(Cl)cc2)=C(CN2CCN(c3ccc(C(=O)NS(=O)(=O)c4ccc(N[C@H](CCN5CCOCC5)CSc5ccccc5)c(S(=O)(=O)C(F)(F)F)c4)cc3)CC2)C1 [Navitoclax] (partner 0.5 µM)
Procedure, shortened: (§1)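 Cells from lung cancer lines were seeded into 1536-well plates and, one day later, dosed by pin tool. Treatments were either a single drug or a fixed dose of an anchor drug with five library-drug doses (not always all listed) in √10 steps. After 5 days, nuclei were stained in a one-step fixation (final 0.05% Triton X-100, 1% formaldehyde, 1 ug/ml Hoechst) and counted on 4× images, and relative viability is the treated-to-vehicle nuclei ratio, as the median of duplicate plates.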

[1] = compound: CN1C=C(C2=CC=CC=C21)/C=C\3/C4=C(C=CC=N4)NC3=O + C[C@]1(O)C[C@@H](c2nc(-c3ccc4ccc(-c5ccccc5)nc4c3)c3c(N)nccn32)C1 [Linsitinib] (partner 1 µM)
Procedure, shortened: as §1

Trametinib + Tozasertib = compound: CC(=O)Nc1cccc(-n2c(=O)n(C3CC3)c(=O)c3c(Nc4ccc(I)cc4F)n(C)c(=O)c(C)c32)c1 [Trametinib] + Cc1cc(Nc2cc(N3CCN(C)CC3)nc(Sc3ccc(NC(=O)C4CC4)cc3)n2)n[nH]1 [Tozasertib] (partner 0.1 µM)
Procedure, shortened: as §1

[2] = compound: CN1C=C(C2=CC=CC=C21)/C=C\3/C4=C(C=CC=N4)NC3=O + CS(=O)(=O)N1CCN(Cc2cc3nc(-c4cccc5[nH]ncc45)nc(N4CCOCC4)c3s2)CC1 [Pictilisib] (partner 1 µM)
Procedure, shortened: as §1

UMC-11
relative viability (Trametinib + Navitoclax; first compound 0.0025 µM): 0.305 | relative viability (Trametinib + Navitoclax; first compound 0.007906 µM): 0.32 | relative viability (Trametinib + Navitoclax; first compound 0.025 µM): 0.288 | relative viability (Trametinib + Navitoclax; first compound 0.07906 µM): 0.266 | relative viability (Trametinib + Navitoclax; first compound 0.25 µM): 0.263 | relative viability ([1]; first compound 0.02 µM): 0.68 | relative viability ([1]; first compound 0.06325 µM): 1 | relative viability ([1]; first compound 0.2 µM): 1.07 | relative viability ([1]; first compound 0.6325 µM): 1.1 | relative viability ([1]; first compound 2 µM): 1.18 | relative viability (Trametinib + Tozasertib; first compound 0.0025 µM): 0.199 | relative viability (Trametinib + Tozasertib; first compound 0.007906 µM): 0.195 | relative viability (Trametinib + Tozasertib; first compound 0.07906 µM): 0.19 | relative viability (Trametinib + Tozasertib; first compound 0.25 µM): 0.211 | relative viability ([2]; first compound 0.02 µM): 0.742 | relative viability ([2]; first compound 0.06325 µM): 0.553 | relative viability ([2]; first compound 0.2 µM): 0.549 | relative viability ([2]; first compound 0.6325 µM): 0.763 | relative viability ([2]; first compound 2 µM): 0.875
